Test results published in patent publication US7875618B2, “Substituted imidazo[1,5-a]quinoxalines useful as inhibitors of phosphodiesterase 10 for the treatment of neurological and other disorders” (Wyeth, priority 2007, dated 2011).

Molecular target: T1, human recombinant PDE10A (Homo sapiens, UniProt Q9Y233)
T1 construct: made in house; host or cells: SF21 insect cells (baculovirus)
Experiment: Inhibition of human recombinant PDE10A ([3H]-cAMP SPA, Method B)
Assay type: biochemical
Settings: read-out: PDE10 inhibition IC50 [nM] PDE10A human
Method: The gene was than inserted into a baculovirus vector, ligated with the baculovirus DNA. The enzyme-protein was expressed in SF21-cells. The enzyme was isolated from these cells by harvesting the cells by a centrifugation at 200 g to collect the cells. The cells were resuspended in 50 mM Tris-HCl/5 mM MgCl2 buffer (pH=7.4) and lysed by a sonication of the cells. The cytosolic PDE10A was obtained by a centrifugation at 48000 g for 1 h in the supernatant and stored at −70° C. PDE10 activity was determined in a one step procedure in microtiterplates. […] Nonspecific activity was tested without the enzyme. The reaction was initiated by addition of the substrate solution and was carried out at 37° C. for 30 minutes. Enzymatic activity was stopped by addition of 25 μl YSi-SPA-beads (Amersham-Pharmacia). One hour later the mixture was measured in a liquid scintillation counter for microtiterplates (Microbeta Trilux). To pipette the incubation mixture a robot Biomek (Fa. Beckman) is used. […] For determination of IC50 values the Hill-plot, 2-parameter-model, was used.

T1 sequence (Q9Y233 1-779 isoform Q9Y233-1): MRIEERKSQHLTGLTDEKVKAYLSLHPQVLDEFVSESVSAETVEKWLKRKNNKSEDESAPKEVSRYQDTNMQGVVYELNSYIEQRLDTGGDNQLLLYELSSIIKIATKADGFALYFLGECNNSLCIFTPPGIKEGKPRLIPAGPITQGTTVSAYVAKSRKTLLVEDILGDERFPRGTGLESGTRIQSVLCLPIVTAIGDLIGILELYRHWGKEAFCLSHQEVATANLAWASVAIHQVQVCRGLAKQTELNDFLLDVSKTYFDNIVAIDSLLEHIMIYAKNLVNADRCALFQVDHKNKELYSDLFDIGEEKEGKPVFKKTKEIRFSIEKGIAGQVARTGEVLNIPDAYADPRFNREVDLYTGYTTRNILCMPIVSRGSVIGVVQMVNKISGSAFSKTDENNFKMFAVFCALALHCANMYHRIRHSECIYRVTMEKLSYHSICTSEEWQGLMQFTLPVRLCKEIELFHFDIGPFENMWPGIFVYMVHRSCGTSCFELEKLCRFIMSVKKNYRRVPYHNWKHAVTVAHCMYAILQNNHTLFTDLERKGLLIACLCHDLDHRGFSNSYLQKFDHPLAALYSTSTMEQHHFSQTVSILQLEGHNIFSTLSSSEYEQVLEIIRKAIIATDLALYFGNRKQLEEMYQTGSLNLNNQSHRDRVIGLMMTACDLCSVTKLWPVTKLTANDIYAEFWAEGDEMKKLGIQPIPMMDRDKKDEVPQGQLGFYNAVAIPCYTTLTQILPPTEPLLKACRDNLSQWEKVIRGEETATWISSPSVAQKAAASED

SMILES	IC50 [nM]
COc1nc(C)c2c(C)nc3c(F)cc(F)cc3n12 [Example 73, 6,8-difluoro-1-methoxy-3,4-dimethylimidazo[1,5-a]quinoxaline]	≥ 100
Cc1nc(F)ccc1-c1nc(C)c2c(C)nc3ccc(OC(F)(F)F)cc3n12 [Example 117, 1-(6-fluoro-2-methylpyridin-3-yl)-3,4-dimethyl-8-(trifluoromethoxy)imidazo[1,5-a]quinoxaline]	10 to 100
COc1cccc2c1nc(C)c1c(C)nc(-c3ccccc3C)n12 [Example 133, 6-Methoxy-3,4-dimethyl-1-(2-methylphenyl)imidazo[1,5-a]quinoxaline]	≤ 10
Cc1ccc(C(N)=O)cc1-c1nc(C)c2c(C)nc3ccc(F)cc3n12 [Example 134, 3-(8-fluoro-3,4-dimethylimidazo[1,5-a]quinoxalin-1-yl)-4-methylbenzamide]	10 to 100
CCOc1cc2nc(C)c3c(C)nc(-c4ccccc4C)n3c2cc1Cl [Example 132, 8-Chloro-7-ethoxy-3,4-dimethyl-1-(2-methylphenyl)imidazo[1,5-a]quinoxaline]	10 to 100
Cc1nc(-c2ccncc2)n2c1c(C)nc1ccc(F)cc12 [Example 143, 8-fluoro-3,4-dimethyl-1-pyridin-4-ylimidazo[1,5-a]quinoxaline]	≥ 100
Cc1nc(-c2cc(C(N)=O)ccc2F)n2c1c(C)nc1ccc(F)cc12 [Example 137, 4-fluoro-3-(8-fluoro-3,4-dimethylimidazo[1,5-a]quinoxalin-1-yl)benzamide]	10 to 100
Cc1nc(-c2ccccc2Cl)n2c1c(C)nc1ccc(Cl)cc12 [Example 67, 8-chloro-1-(2-chlorophenyl)-3,4-dimethylimidazo[1,5-a]quinoxaline]	≤ 10
COc1cc2nc(C)c3c(C)nc(-c4ccncc4C)n3c2cc1Cl [Example 127, 8-chloro-7-methoxy-3,4-dimethyl-1-(3-methylpyridin-4-yl)imidazo[1,5-a]quinoxaline]	≤ 10
Cc1nc(F)ccc1-c1nc(C)c2c(C)nc3ccc(F)cc3n12 [Example 139, 8-fluoro-1-(6-fluoro-2-methylpyridin-3-yl)-3,4-dimethylimidazo[1,5-a]quinoxaline]	≥ 100
COc1cc(F)c2nc(C)c3c(C)nc(-c4ccc(F)c(C(N)=O)c4)n3c2c1 [Example 78, 2-fluoro-5-(6-fluoro-8-methoxy-3,4-dimethylimidazo[1,5-a]quinoxalin-1-yl)benzamide]	≤ 10
COc1cc(F)c2nc(C)c3c(C)nc(-c4cccc(F)c4C)n3c2c1 [Example 32, 6-Fluoro-1-(3-fluoro-2-methylphenyl)-8-methoxy-3,4-dimethylimidazo[1,5-a]quinoxaline]	≤ 10
COc1cc2nc(C)c3c(C)nc(-c4c(C)nn(C)c4C)n3c2cc1Cl [Example 131, 8-chloro-7-methoxy-3,4-dimethyl-1-(1,3,5-trimethyl-1H-pyrazol-4-yl)imidazo[1,5-a]quinoxaline]	≤ 10
COc1ccc2nc(C)c3c(C)nc(-c4ccc(F)cc4C)n3c2c1 [Example 108, 1-(4-fluoro-2-methylphenyl)-8-methoxy-3,4-dimethylimidazo[1,5-a]quinoxaline]	10 to 100
CCCc1nc(C)c2c(Cl)nc3ccc(OC)cc3n12 [Intermediate B1, 4-chloro-8-methoxy-3-methyl-1-propyl-imidazo[1,5-a]quinazoline]	10 to 100
Cc1nc(F)ccc1-c1nc(C)c2c(C)nc3ccc(Cl)cc3n12 [Example 62, 8-chloro-1-(6-fluoro-2-methylpyridin-3-yl)-3,4-dimethylimidazo[1,5-a]quinoxaline]	10 to 100
Cc1noc(C)c1-c1nc(C)c2c(C)nc3ccccc3n12 [Example 100, 1-(3,5-dimethylisoxazol-4-yl)-3,4-dimethylimidazo[1,5-a]quinoxaline]	≥ 100
Cc1nc(-c2cccnc2)n2c1c(C)nc1ccc(F)cc12 [Example 144, 8-fluoro-3,4-dimethyl-1-pyridin-3-ylimidazo[1,5-a]quinoxaline]	≥ 100
Cc1ccccc1-c1nc(C)c2c(C)nc3ccc(Cl)cc3n12 [Example 63, 8-chloro-3,4-dimethyl-1-(2-methylphenyl)imidazo[1,5-a]quinoxaline]	≤ 10
Cc1nc(-c2cccc(C(N)=O)c2)n2c1c(C)nc1ccccc12 [Example 101, 3-(3,4-dimethylimidazo[1,5-a]quinoxalin-1-yl)benzamide]	10 to 100
COc1ccncc1-c1nc(C)c2c(C)nc3ccc(C(F)(F)F)cc3n12 [Example 123, 1-(4-methoxypyridin-3-yl)-3,4-dimethyl-8-(trifluoromethyl)imidazo[1,5-a]quinoxaline]	10 to 100
COc1cc(F)c2nc(C)c3c(C)nc(-c4ccccc4C)n3c2c1 [Example 31, 6-Fluoro-8-methoxy-3,4-dimethyl-1-(2-methylphenyl)-imidazo[1,5-a]quinoxaline]	≤ 10
Cc1nc(-c2cc(F)cc(C(N)=O)c2)n2c1c(C)nc1ccc(F)cc12 [Example 136, 3-fluoro-5-(8-fluoro-3,4-dimethylimidazo[1,5-a]quinoxalin-1-yl)benzamide]	10 to 100
COc1cc(F)cc2c1nc(C)c1c(C)nc(-c3ccccc3Cl)n12 [Example 85, 1-(2-chlorophenyl)-8-fluoro-6-methoxy-3,4-dimethylimidazo[1,5-a]quinoxaline]	≤ 10
COc1cc2nc(C)c3c(C)nc(-c4ccccc4Cl)n3c2cc1Cl [Example 129, 8-chloro-1-(2-chlorophenyl)-7-methoxy-3,4-dimethylimidazo[1,5-a]quinoxaline]	≤ 10
Cc1ccccc1-c1nc(C)c2c(C)nc3c(F)cc(F)cc3n12 [Example 70, 6,8-difluoro-3,4-dimethyl-1-(2-methylphenyl)imidazo[1,5-a]quinoxaline]	≤ 10
COc1ccc2nc(C)c3c(C)nc(-c4ccc(F)nc4C)n3c2c1 [Example 113, 1-(6-fluoro-2-methylpyridin-3-yl)-8-methoxy-3,4-dimethylimidazo[1,5-a]quinoxaline]	10 to 100
COc1ccncc1-c1nc(C)c2c(C)nc3ccc(F)cc3n12 [Example 140, 8-fluoro-1-(4-methoxypyridin-3-yl)-3,4-dimethylimidazo[1,5-a]quinoxaline]	≥ 100
Cc1ccccc1-c1nc(C)c2c(C)nc3ccc(OC(F)(F)F)cc3n12 [Example 118, 3,4-dimethyl-1-(2-methylphenyl)-8-(trifluoromethoxy)imidazo[1,5-a]quinoxaline]	≤ 10

The next lines start with the values.

IC50 [nM]	SMILES
≤ 10	COc1ccncc1-c1nc(C)c2c(C)nc3c(OC)cc(F)cc3n12 [Example 80, 8-fluoro-6-methoxy-1-(4-methoxypyridin-3-yl)-3,4-dimethylimidazo[1,5-a]quinoxaline]
10 to 100	Cc1nc(-c2cc(C(N)=O)ccc2F)n2c1c(C)nc1ccccc12 [Example 102, 3-(3,4-dimethylimidazo[1,5-a]quinoxalin-1-yl)-4-fluorobenzamide]
≤ 10	COc1ccc2nc(C)c3c(C)nc(-c4cccc(F)c4C)n3c2c1 [Example 109, 1-(3-fluoro-2-methylphenyl)-8-methoxy-3,4-dimethylimidazo[1,5-a]quinoxaline]
10 to 100	Cc1nc(-c2ccc(F)c(C(N)=O)c2)n2c1c(C)nc1ccc(Cl)cc12 [Example 68, 5-(8-chloro-3,4-dimethylimidazo[1,5-a]quinoxalin-1-yl)-2-fluorobenzamide]
≤ 10	COc1cc2nc(C)c3c(C)nc(-c4cccnc4C)n3c2cc1Cl [Example 130, 8-chloro-7-methoxy-3,4-dimethyl-1-(2-methylpyridin-3-yl)imidazo[1,5-a]quinoxaline]
≤ 10	COc1ccc2nc(C)c3c(C)nc(-c4ccccc4C)n3c2c1 [Example 115, 8-methoxy-3,4-dimethyl-1-(2-methylphenyl)imidazo[1,5-a]quinoxaline]
≤ 10	COc1cc2nc(C)c3c(C)nc(-c4ccccc4C)n3c2cc1Cl [Example 126, 8-chloro-7-methoxy-3,4-dimethyl-1-(2-methylphenyl)imidazo[1,5-a]quinoxaline]
10 to 100	Cc1nn(C)c(C)c1-c1nc(C)c2c(C)nc3ccc(Cl)cc3n12 [Example 69, 8-chloro-3,4-dimethyl-1-(1,3,5-trimethyl-1H-pyrazol-4-yl)imidazo[1,5-a]quinoxaline]
10 to 100	Cc1nc(-c2ccc(F)c(C(N)=O)c2)n2c1c(C)nc1ccc(F)cc12 [Example 135, 2-fluoro-5-(8-fluoro-3,4-dimethylimidazo[1,5-a]quinoxalin-1-yl)benzamide]
10 to 100	Cc1ccsc1-c1nc(C)c2c(C)nc3ccccc3n12 [Example 99, 3,4-dimethyl-1-(3-methyl-2-thienyl)imidazo[1,5-a]quinoxaline]
10 to 100	Cc1nc(F)ccc1-c1nc(C)c2c(C)nc3ccccc3n12 [Example 103, 1-(6-fluoro-2-methylpyridin-3-yl)-3,4-dimethylimidazo[1,5-a]quinoxaline]
≤ 10	COc1ccc2nc(C)c3c(C)nc(-c4cc(C(N)=O)ccc4F)n3c2c1 [Example 114, 4-fluoro-3-(8-methoxy-3,4-dimethylimidazo[1,5-a]quinoxalin-1-yl)benzamide]
≤ 10	COc1cc(F)c2nc(C)c3c(C)nc(-c4ccc(F)cc4Cl)n3c2c1 [Example 33, 1-(2-Chloro-4-fluorophenyl)-6-fluoro-8-methoxy-3,4-dimethylimidazo[1,5-a]quinoxaline]
